Assay results reported in EP0354047A2, “Herbicidal method using atrazine” (MAY & BAKER LIMITED, priority 1988, dated 1990).

Experiments:
Eleusine indica [1] = experiment: Experiment 2: glasshouse experiment, seedlings at 4-leaf stage, percentage phytotoxicity after 19 days; type: in vivo
Method: Agricultural surfactant - nonylphenol ethylene oxide condensate containing 9 moles ethylene oxide (in a commercial composition) was added to all spray dilutions to give 0.2% v/v concentration. […] The ED50 values were as follows:- The results were then used to plot an isobole with a "two-sided effect" according to the methods of […] op. cit. The isobole produced, shown hereinafter in Figure 1 was clearly a type III curve ([…]., page 75), characteristic of synergism.

Sesbania exactata = experiment: Experiment 3: glasshouse, post-emergence, fresh weight after 19 days, % inhibition of growth; type: in vivo; conditions: 2 leaves
Method: (§1) A series of experiments was carried out to determine the nature of the biological interaction between atrazine and five compounds of general formula I on a range of weed species. […] The growth stages of the plants at spraying are also presented with the results. Agricultural surfactant (nonyl phenol ethylene oxide condensate containing 9 moles ethylene oxide marketed as 'Agral') was added to all spray dilutions to give 0.2% v/v concentration. […] After 19 days the fresh weight of vegetation in each pot was determined. […] E = […]00003:character} where E, X and Y are percentage inhibition of growth. In addition, the ED50 or ED90 values (the application rates giving 50% or 90% inhibition of growth, respectively) were calculated from the results for the piperidinedione alone and with increasing rates of atrazine.

Solanum nigrum = experiment: as above; type: in vivo; conditions: for ED₉₀: Atrazine alone; for inhibition at 8 g/ha / inhibition at 16 g/ha / inhibition at 31 g/ha / inhibition at 63 g/ha / inhibition at 125 g/ha: Solanum nigrum, post-emergence; for inhibition at 8 g/ha: Atrazine 8 g/ha alone; for inhibition at 16 g/ha: Atrazine 16 g/ha alone; for inhibition at 31 g/ha: Atrazine 31 g/ha alone; for inhibition at 63 g/ha: Atrazine 63 g/ha alone; for inhibition at 125 g/ha: Atrazine 125 g/ha alone
Method: as §1

Bidens pilosa = experiment: as above; type: in vivo; conditions: 2 leaves
Method: as §1

Brassica kaber = experiment: as above; type: in vivo; conditions: for ED₅₀ / ED₉₀: Atrazine alone; for inhibition at 8 g/ha / inhibition at 16 g/ha / inhibition at 31 g/ha / inhibition at 63 g/ha / inhibition at 125 g/ha: Mutarda arvensis, post-emergence; for inhibition at 8 g/ha: Atrazine 8 g/ha alone; for inhibition at 16 g/ha: Atrazine 16 g/ha alone; for inhibition at 31 g/ha: Atrazine 31 g/ha alone; for inhibition at 63 g/ha: Atrazine 63 g/ha alone; for inhibition at 125 g/ha: Atrazine 125 g/ha alone
Method: as §1

Eleusine indica [2] = experiment: as above; type: in vivo; conditions: 3 leaves
Method: as §1

Xanthium strumarium = experiment: as above; type: in vivo; conditions: 2 leaves
Method: as §1

Amaranthus retroflexus = experiment: as above; type: in vivo; conditions: for inhibition at 8 g/ha / inhibition at 16 g/ha / inhibition at 31 g/ha / inhibition at 63 g/ha / inhibition at 125 g/ha: Amaranthus retroflexus, post-emergence; for inhibition at 8 g/ha: Atrazine 8 g/ha alone; for inhibition at 16 g/ha: Atrazine 16 g/ha alone; for inhibition at 31 g/ha: Atrazine 31 g/ha alone; for inhibition at 63 g/ha: Atrazine 63 g/ha alone; for inhibition at 125 g/ha: Atrazine 125 g/ha alone; for ED₉₀: Atrazine alone
Method: as §1

Digitaria sanguinalis = experiment: as above; type: in vivo; conditions: 3 leaves
Method: as §1

maize var.Irla = experiment: Experiment 5: glasshouse, crop plants at 3 leaf stage, percentage phytotoxicity after 12 days; conditions: for % crop phytotoxicity Maize (3 leaves): Compound 74 0 g/ha
Method: An experiment was carried out to determine the biological interaction between atrazine and Compound 74 on maize. A wide range of dose rates of atrazine i.e. 250, 500, 1000 and 2000 g/ha (in a commercial suspension concentrate formulation containing 500g/l w/v atrazine) and of Compound 74 i.e. 31, 63, 125, 250, 1000 and 2000 g/ha (in a composition according to Example 2 as described hereinafter) were applied in a spray volume of 290litres/ha to four replicate 10cm square plastic plant pots of loam soil containing one maize plant, at the 3 leaf growth stage. Agricultural surfactant ('Agral') was added to the spray dilutions to give 0.2%v/v concentration.
After spraying the pots were arranged in randomised blocks in a glasshouse and watered as necessary. After 12 days the plants were assessed for percentage phytotoxicity (reduction in green area compared with unsprayed plants) (0 = no effect 100 = complete destruction).
E = X + Y […] where E, X and Y are percentage phytotoxicity.
The ED values were then used to plot an isobole according to the method of P.M.L. Tammes op cit. The results of percentage phytotoxicity, the ED₂₀ values calculated from them and the calculated expected value are given in Table 9.

[3] = tested on: Brachiaria plantaginea (BRAPL); experiment: Experiment 1: field experiment, post-emergence spray, % control 29 days after application; type: in vivo; conditions: Atrazine 1500g/ha
Method: (§2) Duplicate 12m² plots were sprayed post-emergence with 250g or 500g/ha Compound 1 (in a composition according to Example 1 as described hereinafter) or 1500g/ha atrazine (in a commercial aqueous suspension concentrate formulation containing 500g/l w/v atrazine or a combination (as a tank mix) of the two herbicides in a volume of 300 litres/ha. The following control figures were recorded on the grass weeds Brachiaria plantaginea (BRAPL), Digitaria horizontalis (DIGHO) and Eleusine indica (ELEIN) 29 days after application.

Eleusine indica (ELEIN) = experiment: as above; type: in vivo; conditions: Atrazine 1500g/ha
Method: as §2

## CCNc1nc(Cl)nc(NC(C)C)n1 [Atrazine, 2-chloro-4-ethylamino-6-isopropylamino-1,3,5-triazine]
Eleusine indica [1]; Atrazine 125 g/ha alone
  percentage phytotoxicity: 2%
Eleusine indica [1]; Atrazine 250 g/ha alone
  percentage phytotoxicity: 13%
Eleusine indica [1]; Atrazine 500 g/ha alone
  percentage phytotoxicity: 17%
Eleusine indica [1]; Atrazine 1000 g/ha alone
  percentage phytotoxicity: 43%
Eleusine indica [1]; Atrazine alone, 50% phytotoxicity
  ED₅₀: 1193 g/ha
Sesbania exactata; Atrazine alone
  ED₉₀: ED₉₀(g/ha)76.91
Sesbania exactata; Sesbania, post-emergence, Atrazine 8 g/ha alone
  inhibition at 8 g/ha: 21%
Sesbania exactata; Sesbania, post-emergence, Atrazine 16 g/ha alone
  inhibition at 16 g/ha: 34%
Sesbania exactata; Sesbania, post-emergence, Atrazine 31 g/ha alone
  inhibition at 31 g/ha: 68%
Sesbania exactata; Sesbania, post-emergence, Atrazine 63 g/ha alone
  inhibition at 63 g/ha: 86%
Sesbania exactata; Sesbania, post-emergence, Atrazine 125 g/ha alone
  inhibition at 125 g/ha: 96%
Solanum nigrum; 1-2 leaves, Table 4
  ED₉₀: ED₉₀(g/ha) 121.27
  inhibition at 8 g/ha: 9%
  inhibition at 16 g/ha: 47%
  inhibition at 31 g/ha: 47%
  inhibition at 63 g/ha: 67%
  inhibition at 125 g/ha: 90%
Solanum nigrum; 1 leaf, Table 6
  ED₉₀: ED₉₀(g/ha) 59.35
  inhibition at 8 g/ha: 19%
  inhibition at 16 g/ha: 45%
  inhibition at 31 g/ha: 73%
  inhibition at 63 g/ha: 94%
  inhibition at 125 g/ha: 97%
Solanum nigrum; 2 leaves, Table 7
  ED₉₀: ED₉₀(g/ha) 72.94
  inhibition at 8 g/ha: 6%
  inhibition at 16 g/ha: 27%
  inhibition at 31 g/ha: 35%
  inhibition at 63 g/ha: 76%
  inhibition at 125 g/ha: 99%
Bidens pilosa; Atrazine alone
  ED₅₀: ED₅₀(g/ha)63.17
Bidens pilosa; Bidens pilosa, post-emergence, Atrazine 8 g/ha alone
  inhibition at 8 g/ha: 0%
Bidens pilosa; Bidens pilosa, post-emergence, Atrazine 16 g/ha alone
  inhibition at 16 g/ha: 0%
Bidens pilosa; Bidens pilosa, post-emergence, Atrazine 31 g/ha alone
  inhibition at 31 g/ha: 5%
Bidens pilosa; Bidens pilosa, post-emergence, Atrazine 63 g/ha alone
  inhibition at 63 g/ha: 46%
Bidens pilosa; Bidens pilosa, post-emergence, Atrazine 125 g/ha alone
  inhibition at 125 g/ha: 92%
Brassica kaber; 2-3 leaves, Table 4
  ED₅₀: ED₅₀(g/ha) 88.39
  inhibition at 8 g/ha: 16%
  inhibition at 16 g/ha: 5%
  inhibition at 31 g/ha: 19%
  inhibition at 63 g/ha: 30%
  inhibition at 125 g/ha: 57%
Brassica kaber; 2 leaves, Table 5
  ED₉₀: ED₉₀(g/ha) 77
  inhibition at 8 g/ha: 0%
  inhibition at 16 g/ha: 21%
  inhibition at 31 g/ha: 42%
  inhibition at 63 g/ha: 60%
  inhibition at 125 g/ha: 100%
Brassica kaber; 2 leaves, Table 6
  ED₉₀: ED₉₀(g/ha) 62.14
  inhibition at 8 g/ha: 0%
  inhibition at 16 g/ha: 35%
  inhibition at 31 g/ha: 41%
  inhibition at 63 g/ha: 91%
  inhibition at 125 g/ha: 100%
Brassica kaber; 2 leaves, Table 7
  ED₅₀: ED₅₀(g/ha) 78.24
  inhibition at 8 g/ha: 0%
  inhibition at 16 g/ha: 0%
  inhibition at 31 g/ha: 17%
  inhibition at 63 g/ha: 27%
  inhibition at 125 g/ha: 75%
Eleusine indica [2]; Atrazine alone
  ED₅₀: ED₅₀ (g/ha)664.61
Eleusine indica [2]; Eleusine indica, post-emergence, Atrazine 125 g/ha alone
  inhibition at 125 g/ha: 4%
Eleusine indica [2]; Eleusine indica, post-emergence, Atrazine 500 g/ha alone
  inhibition at 500 g/ha: 36%
Eleusine indica [2]; Eleusine indica, post-emergence, Atrazine 1000 g/ha alone
  inhibition at 1000 g/ha: 66%
Xanthium strumarium; Atrazine alone
  ED₉₀: ED₉₀(g/ha) 138.01
Xanthium strumarium; Xanthium strumarium, post-emergence, Atrazine 8 g/ha alone
  inhibition at 8 g/ha: 25%
Xanthium strumarium; Xanthium strumarium, post-emergence, Atrazine 16 g/ha alone
  inhibition at 16 g/ha: 21%
Xanthium strumarium; Xanthium strumarium, post-emergence, Atrazine 31 g/ha alone
  inhibition at 31 g/ha: 72%
Xanthium strumarium; Xanthium strumarium, post-emergence, Atrazine 63 g/ha alone
  inhibition at 63 g/ha: 59%
Xanthium strumarium; Xanthium strumarium, post-emergence, Atrazine 125 g/ha alone
  inhibition at 125 g/ha: 84%
Amaranthus retroflexus; 2-4 leaves, Table 4
  inhibition at 8 g/ha: 8%
  inhibition at 16 g/ha: 26%
  inhibition at 31 g/ha: 39%
  inhibition at 63 g/ha: 56%
  inhibition at 125 g/ha: 96%
  ED₉₀: ED₉₀(g/ha) 105.79
Amaranthus retroflexus; 2 leaves, Table 1
  inhibition at 8 g/ha: 36%
  inhibition at 16 g/ha: 58%
  inhibition at 31 g/ha: 81%
  inhibition at 63 g/ha: 88%
  inhibition at 125 g/ha: 95%
  ED₉₀: ED₉₀(g/ha) 68.57
Amaranthus retroflexus; 2 leaves, Table 5
  inhibition at 8 g/ha: 0%
  inhibition at 16 g/ha: 58%
  inhibition at 31 g/ha: 85%
  inhibition at 63 g/ha: 71%
  inhibition at 125 g/ha: 99%
  ED₉₀: ED₉₀(g/ha) 53
Digitaria sanguinalis; Atrazine alone
  ED₉₀: ED₉₀ (g/ha) ∞
Digitaria sanguinalis; Digitaria sanguinalis, post-emergence, Atrazine 125 g/ha alone
  inhibition at 125 g/ha: 25%
Digitaria sanguinalis; Digitaria sanguinalis, post-emergence, Atrazine 500 g/ha alone
  inhibition at 500 g/ha: 24%
Digitaria sanguinalis; Digitaria sanguinalis, post-emergence, Atrazine 1000 g/ha alone
  inhibition at 1000 g/ha: 32%
Maize var.Irla; Atrazine alone
  ED₂₀: ED₂₀(g/ha) ∞
  crop phytotoxicity: no crop phytotoxicity
Maize var.Irla; Atrazine 250 g/ha
  % crop phytotoxicity Maize (3 leaves): 0%
Maize var.Irla; Atrazine 500 g/ha
  % crop phytotoxicity Maize (3 leaves): 0%
Maize var.Irla; Atrazine 1000 g/ha
  % crop phytotoxicity Maize (3 leaves): 0%
Maize var.Irla; Atrazine 2000 g/ha
  % crop phytotoxicity Maize (3 leaves): 0%
[3]
  % control observed: 10%
Eleusine indica (ELEIN)
  % control observed: 0%
